What all share (format): in vivo
Experiment [1] concerns MCF-7 cells. Put plainly: Example 1: MCF-7 xenograft tumor model, Compound A and Compound 5. The following applies: BALB/c nude mice, orally once a day for 21 days, Compound A 10 mg/kg, Compound 5 200 mg/kg, alone or combined. As to the method: Example 1: MCF-7 cells were grown in DMEM Medium supplemented with 15% heat inactivated fetal bovine serum at 37° C. in an atmosphere of 5% CO2 in air. BALB/c nude mice were implanted subcutaneously on the 2nd right mammary fat pad with a single cell suspension of 95% viable tumor cells (1.5×10^7) in 200 μL DMEM Matrigel mixture (1:1 ratio) without serum. When tumors reached approximately 172 mm^3, animals were randomly distributed into treatment groups of 10 animals each and dosed orally, once a day for 21 days as follows: vehicle at the same volume as the single agent treatment; Compound A (alternatively referred to as “Compound (A)” in the specification and figures) at 10 mg/kg; Compound 5 at 200 mg/kg; and the combination treatment of Compound A 10 mg/kg) and Compound 5 (200 mg/kg). In addition, estradiol benzoate injections were given subcutaneously (40 μg/ 20 μL, twice weekly) to all treatment groups. Tumor volumes were evaluated twice per week to calculate tumor volume over time, and mice were weighed twice per week as a surrogate for signs of toxicity. Tumor growth inhibition (TGI) was calculated using the following equation TGI=(1−(Td−T0)/(Cd−C0))×100%. […] The percent tumor regression was calculated using the formula: (1−(Td/T0))×100%.

Experiment [2] relates to MCF-7 cells. Put plainly: Example 2: MCF-7 xenograft tumor model, Compound A (5 mg/kg) and Compound 5. The following applies: BALB/c nude mice, orally once a day for 24 days, Compound 5 200 mg/kg, alone or combined. Here is the method: (§1) Example 1: MCF-7 cells were grown in DMEM Medium supplemented with 15% heat inactivated fetal bovine serum at 37° C. in an atmosphere of 5% CO2 in air. BALB/c nude mice were implanted subcutaneously on the 2nd right mammary fat pad with a single cell suspension of 95% viable tumor cells (1.5×10^7) in 200 μL DMEM Matrigel mixture (1:1 ratio) without serum. […] Tumor volumes were evaluated twice per week to calculate tumor volume over time, and mice were weighed twice per week as a surrogate for signs of toxicity. […] The percent tumor regression was calculated using the formula: (1−(Td/T0))×100%.
Example 2: MCF-7 cells were grown in DMEM Medium supplemented with 15% heat inactivated fetal bovine serum at 37° C. in an atmosphere of 5% CO2 in air. […] Tumor volumes were evaluated twice per week to calculate tumor volume over time, and mice were weighed twice per week as a surrogate for signs of toxicity. TGI and Tumor regression values were calculated using the equations provided in Example 1. […]

The test system of experiment [3] is MCF-7 cells. Put plainly: Example 3: MCF-7 xenograft tumor model, Compound A and Compound 6. Conditions: BALB/c nude mice, orally once a day for 28 days, Compound A 10 mg/kg, Compound 6 50 mg/kg, alone or combined. As to the method: as §1
Example 3: MCF-7 cells were grown in DMEM Medium supplemented with 15% heat inactivated fetal bovine serum at 37° C. in an atmosphere of 5% CO2 in air. […] Tumor volumes were evaluated twice per week to calculate tumor volume over time, and mice were weighed twice per week as a surrogate for signs of toxicity. TGI and Tumor regression values were calculated using the equations provided in Example 1.

As for `C[C@@H]1Cc2c([nH]c3ccccc23)[C@@H](c2c(F)cc(/C=C/C(=O)O)cc2F)N1C12CC(C1)C2` [Compound A], the “TUMOR REGRESSION % (DAY 21)” value in the experiment with MCF-7 cells [1] came to 0%. Further, the “TGI % (DAY 21)” value with MCF-7 cells [1] (estradiol benzoate s.c.) came to 81%. For the same molecule, in the experiment on MCF-7 cells [2], the “TUMOR REGRESSION % (DAY 24)” value stood at 8%. The “TGI % (DAY 24)” value with MCF-7 cells [2] (estradiol benzoate s.c.) is recorded as 108%. Further, in the experiment with MCF-7 cells [3], the “TUMOR REGRESSION % (DAY 29)” value is reported as 33%. Further, the “TGI % (DAY 29)” value in the experiment with MCF-7 cells [3] (estradiol benzoate s.c.) is 120%.

The values are drawn from patent publication US20230054767A1, “COMBINATIONS” (Recurium IP Holdings, LLC, priority 2019, published 2023).
